{"source": "patent US20040038216A1", "about": "“Method for the structural determination of ligands bound to macromolecular targets by nuclear magnetic resonance” (priority 2002, published 2004)", "key": {"[1]": {"target": "Bcl-xL (Homo sapiens, UniProt Q07817)", "sequence (Q07817 whole entry)": "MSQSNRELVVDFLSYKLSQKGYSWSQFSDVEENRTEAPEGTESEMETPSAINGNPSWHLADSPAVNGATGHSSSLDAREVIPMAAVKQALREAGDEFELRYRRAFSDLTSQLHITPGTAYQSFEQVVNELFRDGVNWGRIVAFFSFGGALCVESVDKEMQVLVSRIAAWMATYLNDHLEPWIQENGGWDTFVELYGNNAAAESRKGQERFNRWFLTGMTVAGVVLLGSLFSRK", "experiment": "NMR-based screening", "assay_type": "binding", "details": "independently determined", "procedure": "(§1) 500 uL of the ligand solution was transferred to each of 8 NMR tubes (Wilmad). The protein solutions were then added to the NMR tubes to a final protein concentration of 40 uM in the following manner: Sample 1: unlabeled Bcl-xL; Sample 2: U-^2H-Bcl-xL; Sample 3: U-^2H-{^1H-R}-Bcl-xL; Sample 4: U-^2H-{^1H-Y}-Bcl-xL; Sample 5: U-^2H-{^1H-L}-Bcl-xL; Sample 6: U-2H-{^1H-I}-Bcl-xL; Sample 7: U-^2H-{^1H-M}-Bcl-xL; Sample 8: No protein."}, "[2]": {"target": "T1, Bcl-xL (Homo sapiens, UniProt Q07817, DEL45-84)", "T1 construct": "deletion mutant of Bcl-xL (that lacks the putative carboxy-terminal transmembrane region and residues 49-88) was used; His tag (C); made in house; host or cells: E. coli BL21(DE3)", "T1 sequence (Q07817 with tags, fused parts or gaps DEL45-84 limits assumed)": "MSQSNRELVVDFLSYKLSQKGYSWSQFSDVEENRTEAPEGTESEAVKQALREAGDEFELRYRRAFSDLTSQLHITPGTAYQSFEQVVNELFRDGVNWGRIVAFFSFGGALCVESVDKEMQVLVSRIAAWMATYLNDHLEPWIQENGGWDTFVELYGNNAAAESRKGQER", "experiment": "STD-NMR (saturation transfer difference) spectra on Bcl-xL/ligand complexes", "assay_type": "binding", "procedure": "A sample of unlabeled Bcl-xL as well as samples of perdeuterated Bcl-xL that were selectively protonated at the specific amino acids Arg, Tyr, Leu, Ile, and Met were prepared in accordance with the procedures of Example 1. Samples of 200 uM 4-(4-fluorophenyl)benzoic acid (3, Array), [drawing 1]\nas §1\nSTD-NMR spectra (Mayer and Meyer, J. Am. Chem. Soc. 2001, 123, 6108-6117) were determined on each of the eight samples. All NMR experiments were performed at 300K on a Bruker Avance DRX500 system equipped with a CryoProbe. The pulse sequence for the ID STD-NMR spectra was identical to that used by Mayer and Meyer (2001) except that a CPMG T2-filter was used instead of a T1p-filter to remove background protein resonances. Subtraction of the on- and off-resonance spectra was performed internally and a WATERGATE sequence was used for suppression of the residual solvent signal. On-resonance irradiation of the protein was performed by using a train of Gauss-shaped pulses of 2.5 ms length separated by a 2.5 ms delay, and alternating on-resonance irradiation was applied at 0.8 and 3.0 ppm. Off-resonance irradiation was applied at −10.0 ppm. 280 shaped pulses were used in the pulse train, leading to a total saturation time of 1.4 s. All spectra were acquired with a 100 ms T2-filter, 1024 complex points, 1024 scans, a ^1H sweep width of 8333 Hz, and a total recycle time of 2.0 s.\nAll NMR spectra were processed and analyzed on Silicon Graphics computers using standard protocols well-known in the art. STD-NMR spectra for biaryl 3 in the presence of unlabeled Bcl-xL (Sample 1), U-^2H-Bcl-xL (Sample 2), and no protein are shown in FIG. 5. […] Therefore, the signal intensity for each resonance of the biaryl 3 in the presence of unlabeled and perdeuterated protein was taken as the maximum and minimum intensity, respectively, for the NOE in the presence of the selectively protonated samples. The intensity of the NOEs could then be calculated using the following equation, [formula]\nwhere I(norm) is the normalized intensity in the STD-NMR spectrum for a given biaryl resonance, and I(SL), I(^2H), and I(^1H) are the intensities of the resonance in the presence of the selectively protonated, perdeuterated, and unlabeled protein, respectively. The normalized NOE intensities can be visualized by simple subtraction of the STD-NMR spectrum of the ligand in the presence of deuterated protein from each of the selectively protonated samples. In these spectra, it is clearly seen that an arginine residue is in close contact with the benzoic acid portion of 3 (magnetization transfer to HA and HB/C), but not the fluorophenyl portion. It is also clear that a tyrosine and leucine residue is in contact with the fluorophenyl portion of 3 (magnetization transfer to HD and HB/C), but not the benzoic acid portion. Spectra shown in (E) and (F) indicate that no portion of the biaryl is in contact with any isoleucine or methionine residues.\nThese NOE intensities were then converted into distance restraints for use in structural calculations in the following manner. For any given amino acid type and ligand resonance, normalized NOE intensities less than 5% were treated as having no interaction. Therefore, distances between that ligand atom and all protons on all amino acids of that specific type were set at greater than 5 Å. For NOE intensities greater than 15%, ambiguous distance restraints were assigned. […]"}, "[3]": {"details": "ligand proton HA, Sample 1 Unlabeled Bcl-xL"}, "[4]": {"details": "ligand proton HA, Sample 2 U-2H-Bcl-xL"}, "[5]": {"details": "ligand proton HD, Sample 1 Unlabeled Bcl-xL"}, "[6]": {"details": "ligand proton HD, Sample 2 U-2H-Bcl-xL"}, "[7]": {"details": "ligand protons HB/HC, Sample 1 Unlabeled Bcl-xL"}, "[8]": {"details": "ligand protons HB/HC, Sample 2 U-2H-Bcl-xL"}}, "note": "Marks after values point to notes of the source that are not given here.", "data": [{"smiles": "O=C(O)c1ccc(-c2ccc(F)cc2)cc1", "note": "[biaryl 3, 4-(4-fluorophenyl)benzoic acid]", "values": [{"measurement": "binding to Bcl-xL (NMR-based screening)", "setting": "[1]", "value": "ligand for Bcl-xL"}, {"measurement": "Normalized NOE intensity", "setting": "[2]; HA protons, in the presence of U-2H-{1H-Y}-Bcl-xL", "value": 3, "unit": "%"}, {"measurement": "Normalized NOE intensity", "setting": "[2]; HD protons, in the presence of U-2H-{1H-Y}-Bcl-xL", "value": 22, "unit": "%"}, {"measurement": "Distance restraint derived from the NOE intensity data", "setting": "[2]; ligand proton HA to arginine protons, Sample 3 U-2H-{1H-R}-Bcl-xL", "value": "<4^a Å"}, {"measurement": "Distance restraint derived from the NOE intensity data", "setting": "[2]; ligand proton HA to isoleucine protons, Sample 6 U-2H-{1H-I}-Bcl-xL", "value": ">5", "unit": "Å"}, {"measurement": "Distance restraint derived from the NOE intensity data", "setting": "[2]; ligand proton HA to methionine protons, Sample 7 U-2H-{1H-M}-Bcl-xL", "value": ">5", "unit": "Å"}, {"measurement": "Distance restraint derived from the NOE intensity data", "setting": "[2]; ligand proton HA to tyrosine protons, Sample 4 U-2H-{1H-Y}-Bcl-xL", "value": ">5", "unit": "Å"}, {"measurement": "Actual NOE intensity", "setting": "[2]; [3]", "value": "(175)"}, {"measurement": "Normalized NOE intensity", "setting": "[2]; [3]", "value": "100^a"}, {"measurement": "Actual NOE intensity", "setting": "[2]; [4]", "value": "(17)"}, {"measurement": "Normalized NOE intensity", "setting": "[2]; [4]", "value": 0}, {"measurement": "Actual NOE intensity", "setting": "[2]; ligand proton HA, Sample 3 U-2H-{1H-R}-Bcl-xL", "value": "(57)"}, {"measurement": "Actual NOE intensity", "setting": "[2]; ligand proton HA, Sample 4 U-2H-{1H-Y}-Bcl-xL", "value": "(22)"}, {"measurement": "Actual NOE intensity", "setting": "[2]; ligand proton HA, Sample 5 U-2H-{1H-L}-Bcl-xL", "value": "(28)"}, {"measurement": "Actual NOE intensity", "setting": "[2]; ligand proton HA, Sample 6 U-2H-{1H-I}-Bcl-xL", "value": "(18)"}, {"measurement": "Actual NOE intensity", "setting": "[2]; ligand proton HA, Sample 7 U-2H-{1H-M}-Bcl-xL", "value": "(23)"}, {"measurement": "Distance restraint derived from the NOE intensity data", "setting": "[2]; ligand proton HD to leucine protons, Sample 5 U-2H-{1H-L}-Bcl-xL", "value": "<3", "unit": "Å"}, {"measurement": "Actual NOE intensity", "setting": "[2]; [5]", "value": "(167)"}, {"measurement": "Normalized NOE intensity", "setting": "[2]; [5]", "value": 100}, {"measurement": "Actual NOE intensity", "setting": "[2]; [6]", "value": "(28)"}, {"measurement": "Normalized NOE intensity", "setting": "[2]; [6]", "value": 0}, {"measurement": "Actual NOE intensity", "setting": "[2]; ligand proton HD, Sample 3 U-2H-{1H-R}-Bcl-xL", "value": "(40)"}, {"measurement": "Actual NOE intensity", "setting": "[2]; ligand proton HD, Sample 4 U-2H-{1H-Y}-Bcl-xL", "value": "(59)"}, {"measurement": "Actual NOE intensity", "setting": "[2]; ligand proton HD, Sample 5 U-2H-{1H-L}-Bcl-xL", "value": "(93)"}, {"measurement": "Actual NOE intensity", "setting": "[2]; ligand proton HD, Sample 6 U-2H-{1H-I}-Bcl-xL", "value": "(40)"}, {"measurement": "Actual NOE intensity", "setting": "[2]; ligand proton HD, Sample 7 U-2H-{1H-M}-Bcl-xL", "value": "(45)"}, {"measurement": "Distance restraint derived from the NOE intensity data", "setting": "[2]; ligand protons HB/HC to arginine protons, Sample 3 U-2H-{1H-R}-Bcl-xL", "value": "<5", "unit": "Å"}, {"measurement": "Distance restraint derived from the NOE intensity data", "setting": "[2]; ligand protons HB/HC to isoleucine protons, Sample 6 U-2H-{1H-I}-Bcl-xL", "value": ">5", "unit": "Å"}, {"measurement": "Distance restraint derived from the NOE intensity data", "setting": "[2]; ligand protons HB/HC to leucine protons, Sample 5 U-2H-{1H-L}-Bcl-xL", "value": "<5", "unit": "Å"}, {"measurement": "Distance restraint derived from the NOE intensity data", "setting": "[2]; ligand protons HB/HC to methionine protons, Sample 7 U-2H-{1H-M}-Bcl-xL", "value": ">5", "unit": "Å"}, {"measurement": "Actual NOE intensity", "setting": "[2]; [7]", "value": "(200)"}, {"measurement": "Normalized NOE intensity", "setting": "[2]; [7]", "value": 100}, {"measurement": "Actual NOE intensity", "setting": "[2]; [8]", "value": "(32)"}, {"measurement": "Normalized NOE intensity", "setting": "[2]; [8]", "value": 0}, {"measurement": "Actual NOE intensity", "setting": "[2]; ligand protons HB/HC, Sample 3 U-2H-{1H-R}-Bcl-xL", "value": "(70)"}, {"measurement": "Actual NOE intensity", "setting": "[2]; ligand protons HB/HC, Sample 4 U-2H-{1H-Y}-Bcl-xL", "value": "(49)"}, {"measurement": "Actual NOE intensity", "setting": "[2]; ligand protons HB/HC, Sample 5 U-2H-{1H-L}-Bcl-xL", "value": "(71)"}, {"measurement": "Actual NOE intensity", "setting": "[2]; ligand protons HB/HC, Sample 6 U-2H-{1H-I}-Bcl-xL", "value": "(30)"}, {"measurement": "Actual NOE intensity", "setting": "[2]; ligand protons HB/HC, Sample 7 U-2H-{1H-M}-Bcl-xL", "value": "(30)"}]}]}
